Assays:
Assay type in all cases: functional
[1] = system: Tobacco mosaic virus; experiment: In vitro antiviral activity against Tobacco mosaic virus (TMV) infected tobacco leaves at 100 ug/ml
[2] = system: Colletotrichum lagenaria; experiment: Fungicidal activity against Colletotrichum lagenaria at 50 ug/ml by growth inhibition method; design: scale not given: the % may be the effect or the level left
[3] = system: Fusarium graminearum; experiment: Fungicidal activity against Fusarium graminearum at 50 ug/ml by growth inhibition method; design: scale not given: the % may be the effect or the level left
[4] = system: Rhizoctonia solani; experiment: Fungicidal activity against Rhizoctonia solani at 50 ug/ml by growth inhibition method; design: scale not given: the % may be the effect or the level left
[5] = system: Tobacco mosaic virus; experiment: In vitro antiviral activity against Tobacco mosaic virus (TMV) infected tobacco leaves at 500 ug/ml
[6] = system: Pyricularia grisea; experiment: Fungicidal activity against Magnaporthe grisea at 50 ug/ml by growth inhibition method; design: scale not given: the % may be the effect or the level left
[7] = system: Phytophthora infestans; experiment: Fungicidal activity against Phytophthora infestans at 50 ug/ml by growth inhibition method; design: scale not given: the % may be the effect or the level left
[8] = system: Botryosphaeria berengeriana; experiment: Fungicidal activity against Botryosphaeria berengeriana at 50 ug/ml by growth inhibition method; design: scale not given: the % may be the effect or the level left
[9] = system: Cercospora beticola; experiment: Fungicidal activity against Cercospora beticola at 50 ug/ml by growth inhibition method; design: scale not given: the % may be the effect or the level left
[10] = system: Thanatephorus cucumeris; experiment: Fungicidal activity against Thanatephorus cucumeris at 50 ug/ml by growth inhibition method; design: scale not given: the % may be the effect or the level left
[11] = system: Alternaria solani; experiment: Fungicidal activity against Alternaria solani at 50 ug/ml by growth inhibition method; design: scale not given: the % may be the effect or the level left
[12] = system: Mycosphaerella arachidis; experiment: Fungicidal activity against Mycosphaerella arachidis at 50 ug/ml by growth inhibition method; design: scale not given: the % may be the effect or the level left
[13] = system: Fusarium oxysporum; experiment: Fungicidal activity against Fusarium oxysporum at 50 ug/ml by growth inhibition method; design: scale not given: the % may be the effect or the level left

## Cc1ccc(N(C(=O)c2snnc2C)C(C(=O)NC2CCCCC2)c2ccccc2F)cc1F (configuration not stated)
[1]
  inhibition at 100 µg/mL: 22%
[2]
  Activity: 42%
[3]
  Activity: 0%
[4]
  Activity: 49%
[5]
  inhibition at 500 µg/mL: 23%
[6]
  Activity: 43%
[7]
  Activity: 41%
[8]
  Activity: 31%
[9]
  Activity: 0%
[10]
  Activity: 33%
[11]
  Activity: 38%
[12]
  Activity: 29%

## Cc1ccc(N(C(=O)c2snnc2C)C(C(=O)NC2CCCCC2)c2cccc(F)c2)cc1F (configuration not stated)
[1]
  inhibition at 100 µg/mL: 9%
[2]
  Activity: 5%
[3]
  Activity: 38%
[4]
  Activity: 42%
[5]
  inhibition at 500 µg/mL: 29%
[6]
  Activity: 0%
[7]
  Activity: 5%
[8]
  Activity: 0%
[9]
  Activity: 17%
[10]
  Activity: 0%
[11]
  Activity: 0%
[12]
  Activity: 21%

## Cc1ccc(N(C(=O)c2snnc2C)C(C(=O)NC2CCCCC2)c2ccc(F)cc2)cc1F (configuration not stated)
[1]
  inhibition at 100 µg/mL: 40%
[2]
  Activity: 26%
[3]
  Activity: 8%
[4]
  Activity: 40%
[5]
  inhibition at 500 µg/mL: 36%
[6]
  Activity: 14%
[7]
  Activity: 29%
[8]
  Activity: 19%
[9]
  Activity: 0%
[10]
  Activity: 17%
[11]
  Activity: 44%
[12]
  Activity: 43%

## Cc1ccc(N(C(=O)c2snnc2C)C(C(=O)NC2CCCCC2)c2ccc(C(F)(F)F)cc2)cc1F (configuration not stated)
[1]
  inhibition at 100 µg/mL: 10%
[2]
  Activity: 5%
[3]
  Activity: 24%
[4]
  Activity: 35%
[5]
  inhibition at 500 µg/mL: 25%
[6]
  Activity: 14%
[7]
  Activity: 0%
[8]
  Activity: 0%
[9]
  Activity: 50%
[10]
  Activity: 6%
[11]
  Activity: 0%
[12]
  Activity: 57%

## Cc1ccc(N(C(=O)c2snnc2C)C(C(=O)NC2CCCCC2)c2ccccc2[N+](=O)[O-])cc1F (configuration not stated)
[1]
  inhibition at 100 µg/mL: 17%
[2]
  Activity: 5%
[3]
  Activity: 41%
[4]
  Activity: 37%
[5]
  inhibition at 500 µg/mL: 29%
[6]
  Activity: 0%
[7]
  Activity: 5%
[8]
  Activity: 0%
[9]
  Activity: 67%
[10]
  Activity: 0%
[11]
  Activity: 0%
[12]
  Activity: 21%

## Cc1cccc(C(C(=O)NC2CCCCC2)N(C(=O)c2snnc2C)c2ccc(C)c(F)c2)c1 (configuration not stated)
[1]
  inhibition at 100 µg/mL: 18%
[2]
  Activity: 0%
[3]
  Activity: 34%
[4]
  Activity: 28%
[5]
  inhibition at 500 µg/mL: 29%
[6]
  Activity: 0%
[7]
  Activity: 0%
[8]
  Activity: 0%
[9]
  Activity: 33%
[10]
  Activity: 0%
[11]
  Activity: 0%
[12]
  Activity: 21%

## Cc1ccc(C(C(=O)NC2CCCCC2)N(C(=O)c2snnc2C)c2ccc(C)c(F)c2)cc1 (configuration not stated)
[1]
  inhibition at 100 µg/mL: 52%
[2]
  Activity: 0%
[3]
  Activity: 28%
[4]
  Activity: 33%
[5]
  inhibition at 500 µg/mL: 36%
[6]
  Activity: 29%
[7]
  Activity: 5%
[8]
  Activity: 0%
[9]
  Activity: 17%
[10]
  Activity: 0%
[11]
  Activity: 0%
[12]
  Activity: 14%

## Cc1ccc(N(C(=O)c2snnc2C)C(C(=O)NC2CCCCC2)c2ccccc2C(F)(F)F)cc1Cl (configuration not stated)
[1]
  inhibition at 100 µg/mL: 18%
[2]
  Activity: 53%
[3]
  Activity: 12%
[4]
  Activity: 60%
[5]
  inhibition at 500 µg/mL: 38%
[6]
  Activity: 43%
[7]
  Activity: 41%
[8]
  Activity: 46%
[9]
  Activity: 0%
[10]
  Activity: 33%
[11]
  Activity: 38%
[12]
  Activity: 29%

## Cc1ccc(N(C(=O)c2snnc2C)C(C(=O)NC2CCCCC2)c2ccc(C(F)(F)F)cc2)cc1Cl (configuration not stated)
[1]
  inhibition at 100 µg/mL: 11%
[2]
  Activity: 16%
[3]
  Activity: 19%
[4]
  Activity: 37%
[5]
  inhibition at 500 µg/mL: 34%
[6]
  Activity: 14%
[7]
  Activity: 29%
[8]
  Activity: 19%
[9]
  Activity: 0%
[10]
  Activity: 22%
[11]
  Activity: 31%
[12]
  Activity: 57%

## Cc1ccc(N(C(=O)c2snnc2C)C(C(=O)NC2CCCCC2)c2cccc([N+](=O)[O-])c2)cc1Cl (configuration not stated)
[1]
  inhibition at 100 µg/mL: 11%
[2]
  Activity: 26%
[3]
  Activity: 12%
[4]
  Activity: 40%
[5]
  inhibition at 500 µg/mL: 9%
[6]
  Activity: 0%
[7]
  Activity: 41%
[8]
  Activity: 19%
[9]
  Activity: 0%
[10]
  Activity: 20%
[11]
  Activity: 38%
[12]
  Activity: 57%

## Cc1ccc(N(C(=O)c2snnc2C)C(C(=O)NC2CCCCC2)c2ccc([N+](=O)[O-])cc2)cc1Cl (configuration not stated)
[1]
  inhibition at 100 µg/mL: 26%
[2]
  Activity: 24%
[4]
  Activity: 29%
[13]
  Activity: 22%
[5]
  inhibition at 500 µg/mL: 32%
[6]
  Activity: 18%
[7]
  Activity: 12%
[8]
  Activity: 38%
[9]
  Activity: 11%
[10]
  Activity: 25%
[11]
  Activity: 35%
[12]
  Activity: 16%

## Cc1ccc(N(C(=O)c2snnc2C)C(C(=O)NC2CCCCC2)c2ccccc2C)cc1Cl (configuration not stated)
[1]
  inhibition at 100 µg/mL: 38%
[2]
  Activity: 37%
[3]
  Activity: 23%
[4]
  Activity: 43%
[5]
  inhibition at 500 µg/mL: 42%
[6]
  Activity: 0%
[7]
  Activity: 35%
[8]
  Activity: 35%
[9]
  Activity: 0%
[10]
  Activity: 43%
[11]
  Activity: 56%
[12]
  Activity: 14%

## Cc1cccc(C(C(=O)NC2CCCCC2)N(C(=O)c2snnc2C)c2ccc(C)c(Cl)c2)c1 (configuration not stated)
[1]
  inhibition at 100 µg/mL: 11%
[2]
  Activity: 14%
[4]
  Activity: 63%
[13]
  Activity: 18%
[5]
  inhibition at 500 µg/mL: 19%
[6]
  Activity: 10%
[7]
  Activity: 35%
[8]
  Activity: 35%
[9]
  Activity: 27%
[10]
  Activity: 24%
[11]
  Activity: 37%
[12]
  Activity: 17%

## Cc1ccc(C(C(=O)NC2CCCCC2)N(C(=O)c2snnc2C)c2ccc(C)c(Cl)c2)cc1 (configuration not stated)
[1]
  inhibition at 100 µg/mL: 25%
[2]
  Activity: 18%
[4]
  Activity: 69%
[13]
  Activity: 18%
[5]
  inhibition at 500 µg/mL: 40%
[6]
  Activity: 50%
[7]
  Activity: 26%
[8]
  Activity: 26%
[9]
  Activity: 27%
[10]
  Activity: 24%
[11]
  Activity: 42%
[12]
  Activity: 35%

## Cc1ccc(N(C(=O)c2snnc2C)C(C(=O)NC2CCCCC2)c2cccc(O)c2)cc1Cl (configuration not stated)
[1]
  inhibition at 100 µg/mL: 24%
[2]
  Activity: 44%
[4]
  Activity: 43%
[13]
  Activity: 34%
[5]
  inhibition at 500 µg/mL: 35%
[6]
  Activity: 29%
[7]
  Activity: 24%
[8]
  Activity: 48%
[9]
  Activity: 44%
[10]
  Activity: 22%
[11]
  Activity: 56%
[12]
  Activity: 47%

## Cc1ccc(N(C(=O)c2snnc2C)C(C(=O)NC2CCCCC2)c2ccc(O)cc2)cc1Cl (configuration not stated)
[1]
  inhibition at 100 µg/mL: 14%
[2]
  Activity: 8%
[4]
  Activity: 46%
[13]
  Activity: 38%
[5]
  inhibition at 500 µg/mL: 17%
[6]
  Activity: 41%
[7]
  Activity: 32%
[8]
  Activity: 31%
[9]
  Activity: 33%
[10]
  Activity: 37%
[11]
  Activity: 50%
[12]
  Activity: 53%

## Cc1ccc(N(C(=O)c2snnc2C)C(C(=O)NC2CCCCC2)c2ccccc2Cl)cc1F (configuration not stated)
[1]
  inhibition at 100 µg/mL: 21%
[2]
  Activity: 26%
[3]
  Activity: 23%
[4]
  Activity: 37%
[5]
  inhibition at 500 µg/mL: 23%
[6]
  Activity: 14%
[7]
  Activity: 47%
[8]
  Activity: 31%
[9]
  Activity: 0%
[10]
  Activity: 22%
[11]
  Activity: 19%
[12]
  Activity: 29%

## Cc1ccc(N(C(=O)c2snnc2C)C(C(=O)NC2CCCCC2)c2cccc(Cl)c2)cc1F (configuration not stated)
[1]
  inhibition at 100 µg/mL: 15%
[2]
  Activity: 16%
[3]
  Activity: 27%
[4]
  Activity: 34%
[5]
  inhibition at 500 µg/mL: 39%
[6]
  Activity: 29%
[7]
  Activity: 29%
[8]
  Activity: 8%
[9]
  Activity: 13%
[10]
  Activity: 28%
[11]
  Activity: 25%
[12]
  Activity: 14%

## Cc1ccc(N(C(=O)c2snnc2C)C(C(=O)NC2CCCCC2)c2ccc(Cl)cc2)cc1F (configuration not stated)
[1]
  inhibition at 100 µg/mL: 28%
[2]
  Activity: 37%
[3]
  Activity: 12%
[4]
  Activity: 43%
[5]
  inhibition at 500 µg/mL: 30%
[6]
  Activity: 43%
[7]
  Activity: 24%
[8]
  Activity: 23%
[9]
  Activity: 0%
[10]
  Activity: 22%
[11]
  Activity: 38%
[12]
  Activity: 0%

## Cc1ccc(N(C(=O)c2snnc2C)C(C(=O)NC2CCCCC2)c2ccc(Cl)cc2)cc1Cl (configuration not stated)
[1]
  inhibition at 100 µg/mL: 38%
[2]
  Activity: 32%
[3]
  Activity: 35%
[4]
  Activity: 40%
[5]
  inhibition at 500 µg/mL: 29%
[6]
  Activity: 29%
[7]
  Activity: 41%
[8]
  Activity: 27%
[9]
  Activity: 0%
[10]
  Activity: 50%
[11]
  Activity: 38%
[12]
  Activity: 29%

## Cc1ccc(N(C(=O)c2snnc2C)C(C(=O)NC2CCCCC2)c2ccccc2F)cc1Cl (configuration not stated)
[1]
  inhibition at 100 µg/mL: 18%
[2]
  Activity: 47%
[3]
  Activity: 46%
[4]
  Activity: 49%
[5]
  inhibition at 500 µg/mL: 24%
[6]
  Activity: 14%
[7]
  Activity: 35%
[8]
  Activity: 30%
[9]
  Activity: 16%
[10]
  Activity: 33%
[11]
  Activity: 38%
[12]
  Activity: 43%
